The source of these data is US9643960B2, “Procaspase activating compounds” (The Board of Trustees of the University of Illinois, priority 2009, dated 2017).

Data set [1] concerns U937 human lymphoma cells. Put plainly: Cell death assay in U937 cells (sulforhodamine B, 72 h). The data set is classed as cell-based. How it is done: To each well was added 2 μL of 100× compound stock solutions in DMSO at varying concentrations so that the cells were treated with concentrations between 0 μM and 100 μM compound. Each concentration was tested in quintuplicate. In each plate 5 wells received 10 μM etoposide as a positive control and 5 wells received 2 μL of DMSO as a negative control. […] 1 Specifically, to each well of the plate was added 50 μL of an 80% (w/v) solution of TCA in H2O and the plates were allowed to rest at 4° C. overnight. The plates were then washed gently with a steam of H2O five times to remove the excess TCA and precipitated serum proteins. […] After staining, the wells were gently washed 5 times with 100 μL of 1% (v/v) acetic acid to remove the unbound dye. The plates were then allowed to air dry. […] The OD was then read at 510 nm in a Molecular Dynamics plate reader and the percent cell death calculated and normalized to the positive control (100% cell death) and the negative control (0% cell death). The percent cell death was averaged for each compound concentration and plotted as a function of compound concentration. The data were fit to a logistical dose response curve using Table curve 2D and the IC50 value was calculated. The experiment was repeated three times and the average of the calculated IC50 values was reported. The standard error of the mean (SEM) was determined and reported for the triplicate experiments.
U-937 cells grow in culture as a suspension.

The target in another data set is T1, caspase-3 (Homo sapiens, UniProt P42574).
T1 construct: Active caspase-3 is a homodimer of heterodimers and is produced by proteolysis of procaspase-3; 6xHis (C); made in house; host or cells: Escherichia coli BL21(DE3), plasmid pHC332
T1 sequence (P42574 29-175 limits assumed): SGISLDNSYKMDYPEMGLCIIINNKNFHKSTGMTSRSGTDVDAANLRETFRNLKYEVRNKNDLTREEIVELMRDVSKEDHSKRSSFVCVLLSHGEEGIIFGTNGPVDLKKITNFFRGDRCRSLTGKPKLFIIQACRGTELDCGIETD
T1 sequence (P42574 176-277 limits assumed): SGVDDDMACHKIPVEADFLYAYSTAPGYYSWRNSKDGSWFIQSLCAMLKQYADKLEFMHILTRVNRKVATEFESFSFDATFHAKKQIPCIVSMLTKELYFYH
Briefly: Caspase-3 activity assay (relief of zinc mediated inhibition). It counts as biochemical. The settings on record: for activation at 10 µM: 10 μM compound, 2.5 μM zinc. Here is the method:
Caspase-3 Activity Assays—Zinc-free stocks (2×) of caspase-3 (1 μM) were prepared in Caspase Activity Buffer. Compound stock solutions were made (2×) at various concentrations from 200 μM to 200 nM in Caspase Activity Buffer. […] The plates were incubated at room temperature for 30 minutes. […] The data for each compound concentration (4 wells) was averaged and the percent activity was plotted as a function of compound concentration. The data was analyzed using Table Curve 2D and fitted to a logistical dose-response curve. […] The percent activity at 10 μM was determined for each compound and reported as an average of the three replicate experiments with the corresponding SEM.

Data set [2] can be described thus: EGTA fluorescence titration assay (zinc binding). The following applies: read-out: Zinc Binding (KD) nM.
Another data set concerns mice. The settings on record: cited from earlier work.
Data set [3] is described as follows: Solubility in β-cyclodextran. The data set is classed as physicochemical.
The subject of the next data set is SK-MEL-5 cells. Put plainly: Live cell confocal imaging, colocalization with caspase-3/-7 activity. It counts as cell-based, human. The settings on record: 25 μM with FAM-DEVD-fmk. How it is done:
Live Cell Imaging—SK-Mel-5 cells were grown on the bottom of no. 1 borosilicate growth chambers (Nunc) to a confluency of […]. Cells were then treated with DMSO, 25 μM FAM-DEVD-fmk in DMSO, 25 μM AF350-PAC-1 in DMSO, or both 25 μM FAM-DEVD-fmk and 25 μM AF350-PAC-1 concurrently for 1 hour at 37° C. and 5% CO2. Cells were then washed 5 times with RPMI 1640 growth media lacking phenol red. The cells were then allowed to further incubate at 37° C. for 2 hours before imaging. For cells stained with SYBR green for nuclear staining, a 1:100,000 dilution of SYBR green in media was added immediately prior to imaging. Cells were imaged on a Leica SP2 Multiphoton Confocal microscope.

Data set [4] concerns the target T2, procaspase-3(D9A/D28A/D175A) mutant (Homo sapiens, UniProt P42574, D175A/D28A/D9A).
T2 construct: 6xHis (C); made in house; host or cells: Escherichia coli BL21(DE3) (printed for procaspase-3 in general, not for the mutant by name)
T2 sequence (P42574 1-277 D9A/D28A/D175A): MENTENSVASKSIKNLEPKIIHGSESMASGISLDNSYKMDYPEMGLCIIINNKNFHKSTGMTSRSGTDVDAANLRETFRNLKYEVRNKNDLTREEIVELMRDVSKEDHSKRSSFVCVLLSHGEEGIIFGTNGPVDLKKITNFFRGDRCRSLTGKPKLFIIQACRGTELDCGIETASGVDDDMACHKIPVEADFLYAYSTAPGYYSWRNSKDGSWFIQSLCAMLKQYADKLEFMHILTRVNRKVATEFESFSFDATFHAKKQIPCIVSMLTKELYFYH
Put plainly: Procaspase-3 D3A mutant activity in the presence of zinc. The following applies: 10 μM zinc, S-PAC-1 added, monitored at 15 minute intervals. The data set is classed as biochemical. An excerpt:
Zinc ions are known to inhibit procaspase-3. […] The effect of a range of concentrations of zinc on caspase-3 and procaspase-3 enzymatic activity was examined. All buffers were first treated with Chelex® resin to remove any trace metal contaminants. […] To ensure that the activity of the proenzyme was being monitored, a proteolytically uncleavable mutant of procaspase-3 (in which the three aspartic acid cleavage site residues are mutated to alanine (D9A/D28A/D175A)) was used (24,32).

Data set [5] is described as follows: Pharmacokinetics of S-PAC-1 i.p. in mice. It counts as in vivo, mouse. The following applies: C57/BL6 mice, 125 mg/kg i.p. The source says: Mice were sacrificed and blood drawn at varying time points after administration. Blood samples were centrifuged and the serum was collected and analyzed by liquid chromatography to determine drug concentration.
Data set [6] in a line: Continuous-rate infusion pharmacokinetics in healthy research dogs. The data set is classed as in vivo. The following applies: hound, dog, plasma, continuous intravenous infusion, read-out: steady state plasma concentration. Here is the method:
Each dog received an initial loading dose via i.v. infusion over the course of 10 minutes followed by a maintenance dosage delivered by an infusion pump for an additional 24 hours.

The nature of data set [7]: Pharmacokinetics of S-PAC-1 in lymphoma bearing dogs. It counts as in vivo, dog. The following applies: continuous infusion.
Description: In addition, blood was collected from all pet dogs at each scheduled follow up visit to characterize hematologic and non-hematologic toxicity. Between administrations, patients were monitored by pet owners for gastrointestinal toxicity observational scores adhering the Veterinary Co-operative oncology group common terminology and criteria for adverse events (VCOG_CTCAE) (44).
Setting [8] is: Homo sapiens, U-937, 72 h, 72 h exposure, sulforhodamine B assay, read-out: U937 (IC50 μM).
Where [9] appears, read: Homo sapiens, U-937, 72 h, read-out: U937 (IC50 μM), 72 h exposure, sulforhodamine B assay.

Read-outs that look alike come from different tables or passages of the source.

In general, IC50 refers to the concentration that gives 50% inhibition. The term Kd denotes the constant that tells how readily two partners part at equilibrium.

For `COc1cc(O)c(/C=N/NC(=O)CN2CCN(Cc3ccccc3CS(=O)(=O)c3ccccc3)CC2)c(OC)c1` [PAC-1-III-6], in data set [1] (setting [8]), the 50% inhibitory concentration (IC50) came to 5.5 ± 1.5 µM.

For `C=CCc1cccc(/C=N/NC(=O)CN2CCN(Cc3ccccn3)CC2)c1O` [PAC-1-II-1], the IC50 in data set [1] (setting [8]) came out at 9.5 ± 1.8 µM. Further, on caspase-3, the activation at 10 µM is 48 ± 3%. Further, the dissociation constant Kd in data set [2] turned out to be 76 nM.

For the compound `c1ccc(CN(CCN(Cc2ccccn2)Cc2ccccn2)Cc2ccccn2)nc1` [TPEN, N,N,N′,N′-tetrakis (2-pyridylmethyl)ethylenediamine], the Neurotoxicity result in the data set with mice was “severe neurotoxicity in mice at low concentrations and rapid death at higher concentrations”.

With `COc1ccc(OC)c(CN2CCN(CC(=O)N/N=C/c3c(O)cc(OC)cc3OC)CC2)c1` [PAC-1-III-4], the IC50 in data set [1] (setting [8]) amounted to 17.5 µM.

As to `C=CCc1cccc(/C=N/NC(=O)CN2CCN(Cc3ccc(OC)cc3)CC2)c1O` [PAC-1-II-6], in data set [1] (setting [8]), the IC50 is 2.7 ± 0.8 µM. The compound also registered an activation at 10 µM on caspase-3 of 24 ± 3.4%. In [3], the “Solubility in β-Cyclodextran (mg β-CD/μmol Compound)” value (“Solubility in β-Cyclodextran” for short) was determined as 7.1 mg β-CD/μmol Compound. For the same compound, in [2], the Kd is 41 nM.

For the compound `COc1ccc(OC)c(CN2CCN(CC(=O)N/N=C/c3ccccc3O)CC2)c1` [PAC-1-III-1], the IC50 in data set [1] (setting [9]) came out at 12 ± 2 µM.

In the case of `COc1cccc(/C=N/NC(=O)CN2CCN(Cc3cc(OC)c(OC)c(OC)c3)CC2)c1O` [PAC-1-III-2], the IC50 in data set [1] (setting [8]) was 27 ± 9.4 µM.

Consider `C=CCc1cc(/C=N/NC(=O)CN2CCN(Cc3ccccc3)CC2)c(O)c(CC=C)c1` [PAC-1-I-10], for which the IC50 was determined as 1.8 ± 0.4 µM in data set [1] (setting [9]) and 1.6 ± 0.4 µM in data set [1] (read-out: U937 (IC50 μM), 72 h exposure, sulforhodamine B assay).

Regarding `O=C(CN1CCN(Cc2ccccc2)CC1)NCCc1ccccc1O` [PAC-1-IV-6], in data set [1] (setting [8]), the concentration for half-maximal inhibition (IC50) was greater than 100 µM. Further, the activation at 10 µM on caspase-3 stood at 4.1 ± 1%.

Regarding `COc1cc(O)c(/C=N/NC(=O)CN2CCN(Cc3cc(OC)c(OC)c(OC)c3)CC2)c(OC)c1` [PAC-1-III-3], the IC50 in [1] (setting [8]) is 38 ± 6.2 µM.

With `C=CCc1cccc(/C=N/NC(=O)CN2CCN(Cc3ccc(F)cc3)CC2)c1O` [PAC-1-II-4], the concentration for half-maximal inhibition (IC50) in data set [1] (setting [8]) was 2 ± 0.2 µM. Further, the activation at 10 µM at caspase-3 was 24.2 ± 1.7%. In data set [2], the Kd is 96 nM.

As to `C=CCc1cccc(/C=N/NC(=O)CN2CCN(Cc3cccc(Cn4cc(CNC(=O)Cc5c(C)c6cc(S(=O)(=O)O)c(N)cc6oc5=O)nn4)c3)CC2)c1O` [AF-PAC-1], the IC50 in [1] (setting [8]) was determined as 14.8 µM. In addition, on caspase-3, the activation at 10 µM came to 6.3%. On caspase-3 (50 μM compound), the activation at 50 µM was 20%. The “colocalization with sites of caspase-3/-7 enzymatic activity” value with SK-MEL-5 cells was “good colocalization”. For the same compound, the Kd in data set [2] is 61 nM.

With `C=CCc1cccc(/C=N/NC(=O)CN2CCN(Cc3cc(OC)ccc3OC)CC2)c1O` [PAC-1-II-5], the IC50 in data set [1] (setting [8]) amounted to 1 ± 0.1 µM. Also, on caspase-3, the activation at 10 µM amounted to 31 ± 3.6%. The “Solubility in β-Cyclodextran” value in data set [3] was determined as 15.2 mg β-CD/μmol Compound. For the same compound, in data set [2], the Kd is 36 nM.

Regarding `C=CCc1cccc(/C=N/NC(=O)CN2CCN(Cc3cccc([N+](=O)[O-])c3)CC2)c1O` [PAC-1-II-7], the IC50 in data set [1] (setting [8]) was determined as 4.6 ± 1 µM. Also, the “Solubility in β-Cyclodextran” value in data set [3] is 4.0 mg β-CD/μmol Compound.

As to `COc1cccc(/C=N/NC(=O)CN2CCN(Cc3ccccc3CS(=O)(=O)c3ccccc3)CC2)c1O` [PAC-1-III-5], in data set [1] (setting [8]), the IC50 is 8.4 ± 1.6 µM.

`O=C(CN1CCN(Cc2ccccc2)CC1)NCc1ccccc1O` [PAC-1-IV-7]: the half-maximal inhibitory concentration (IC50) in [1] (setting [8]) is greater than 100 µM. Also, the activation at 10 µM at caspase-3 was determined as 4.4 ± 0.9%.

Consider `C=CCc1cccc(/C=N/NC(=O)CN2CCN(Cc3ccc(S(N)(=O)=O)cc3)CC2)c1O` [S-PAC-1, (E)-4-((4-(2-(2-(3-allyl-2-hydroxybenzylidene)hydrazinyl)-2-oxoethyl)piperazin-1-yl)methyl)benzenesulfonamide], for which the “Solubility in β-Cyclodextran” value in data set [3] is 3.5 mg β-CD/μmol Compound. Besides, in data set [4], the “enzymatic activity of uncleavable procaspase-3 (D3A)” value is “rapidly (within 5 minutes) enhances the enzymatic activity of the proenzyme”. For the same compound, the “S-PAC-1 in the blood at 4 hours post injection” value in data set [5] was “no S-PAC-1 remaining in the blood”. The concentration at 24 h in [6] is roughly 15 µM. Moreover, the “time to steady state from beginning of infusion” value in data set [7] was no more than 6 h.

Consider `C=CCc1cccc(/C=N/NC(=O)CN2CCN(Cc3cccc(C(=O)O)c3)CC2)c1O` [PAC-1-II-8], for which, in data set [1] (setting [8]), the IC50 was 2.3 µM. In addition, in [3], the “Solubility in β-Cyclodextran” value is 5.6 mg β-CD/μmol Compound.

As to `C=CCc1cccc(/C=N/NC(=O)CN2CCN(Cc3cccc(Cn4cc(CNC(=O)Cc5c(C)c6cc(S(=O)(=O)O)c(N)cc6oc5=O)nn4)c3)CC2)c1O` [drawing 79], in data set [1] (72 h exposure, sulforhodamine B assay, read-out: U937 (IC50 μM)), the IC50 turned out to be 10.7 µM.

For `C=CCc1cccc(/C=N/NC(=O)CN2CCC(Cc3ccccc3)CC2)c1O` [PAC-1-IV-3], the IC50 in data set [1] (setting [8]) came to 2.7 ± 1.1 µM. This compound showed an activation at 10 µM on caspase-3 of 36 ± 3%. Also, in data set [2], the Kd amounted to 50 nM.
